Reference: US11505547B2, “Compounds” (STEP PHARMA S.A.S., priority 2017, dated 2022)

Target: T1, human CTPS1 (Homo sapiens, UniProt P17812)
T1 construct: purchased Proteros biostructures GmbH
T1 sequence (P17812 1-591): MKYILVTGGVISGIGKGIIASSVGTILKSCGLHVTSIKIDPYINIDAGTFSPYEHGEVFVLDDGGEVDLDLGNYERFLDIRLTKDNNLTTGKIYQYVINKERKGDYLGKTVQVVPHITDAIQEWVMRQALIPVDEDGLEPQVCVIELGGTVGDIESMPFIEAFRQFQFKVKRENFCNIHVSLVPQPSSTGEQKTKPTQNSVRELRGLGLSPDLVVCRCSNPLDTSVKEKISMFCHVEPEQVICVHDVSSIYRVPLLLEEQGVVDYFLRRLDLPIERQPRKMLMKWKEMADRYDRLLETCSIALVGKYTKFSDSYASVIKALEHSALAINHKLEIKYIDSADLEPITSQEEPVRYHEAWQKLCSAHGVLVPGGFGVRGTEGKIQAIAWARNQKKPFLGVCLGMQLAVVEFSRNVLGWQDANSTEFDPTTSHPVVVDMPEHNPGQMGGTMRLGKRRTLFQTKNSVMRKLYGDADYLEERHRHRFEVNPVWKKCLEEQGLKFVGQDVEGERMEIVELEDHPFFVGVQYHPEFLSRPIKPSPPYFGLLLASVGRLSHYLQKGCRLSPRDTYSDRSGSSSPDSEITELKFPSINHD
Test: Human CTPS1 enzyme inhibition, ADP-Glo Max assay
Format: biochemical
Settings: human full length CTPS1, read-out: CTPS1 (Human CTPS1 Enzyme Inhibition data grouped by potency range, IC50)
Protocol: Biological Example 1—Human CTPS1 Enzyme Inhibition
The enzyme inhibitory activities of compounds invented against the target of interest were determined using the ADP-Glo™ Max assay (Promega, UK). Assays for human CTPS1 were performed in 1× assay buffer containing 50 mM Tris, 10 mM MgCl2, 0.01% Tween-20, pH to 8.0 accordingly. Finally, immediately before use, L-cysteine was added to the 1× assay buffer to a final concentration of 2 mM. All reagents are from Sigma-Aldrich unless specified otherwise. Human full length active C-terminal FLAG-Hiss-tag CTPS1 (UniProtKB-P17812, CTPS[1-591]-[…]) was obtained from Proteros biostructures GmbH.
3× human CTPS1 protein was prepared in 1× assay buffer to the final working protein concentration required for the reaction. A 2 uL volume per well of 3× human CTPS1 protein was mixed with 2 uL per well of 3× test compound (compound prepared in 1× assay buffer to an appropriate final 3× compound concentration respective to the concentration response curve designed for the compounds under test) for 10 minutes at 25° C. The enzymatic reaction was then initiated by addition of a 2 uL per well volume of a pre-mixed substrate mix (UltraPure ATP from ADP-Glo™ Max kit (0.31 mM), GTP (0.034 mM), UTP (0.48 mM) and L-glutamine (0.186 mM)) and the mixture was incubated for an appropriate amount of time within the determined linear phase of the reaction at 25° C. under sealed plate conditions with constant agitation at 500 revolutions per minute (rpm). ADP-GIo™ Max reagent was added for 60 minutes (6 uL per well) and subsequently ADP-Glo™ Max development reagent was added for 60 minutes (12 uL per well) prior to signal detection in a microplate reader (EnVision® Multilabel Reader, Perkin Elmer). Following each reagent addition over the course of the assay, assay plates were pulse centrifuged for 30 seconds at 500 rpm.
In all cases, the enzyme converts ATP to ADP and the ADP-Glo™ Max reagent subsequently depletes any remaining endogenous ATP in the reaction system. The ADP-Glo™ Max detection reagent converts the ADP that has been enzymatically produced back into ATP and using ATP as a substrate together with luciferin for the enzyme luciferase, light is generated which produces a detectable luminescence. […] The percentage inhibition produced by each concentration of compound was calculated using the equation shown below: […]
Percentage inhibition was then plotted against compound concentration, and the 50% inhibitory concentration (IC50) was determined from the resultant concentration-response curve.

Structure (SMILES) | IC50 [nM]
COCCC(NC(=O)c1ccc(-c2cncc(C(F)(F)F)n2)cc1F)c1csc(NS(=O)(=O)C2CC2)n1 (stereo not drawn) [Example R87, N-(1-(2-(cyclopropanesulfonamido)thiazol-4-yl)-3-methoxypropyl)-2-fluoro-4-(6-(trifluoromethyl)pyrazin-2-yl)benzamide] | 100 to 1000
CCOc1cncc(-c2ccc(C(=O)NC(C)c3csc(NS(=O)(=O)C4CC4)n3)c(F)c2)n1 (stereo not drawn) [Example R91, N-(1-(2-(cyclopropanesulfonamido)thiazol-4-yl)ethyl)-4-(6-ethoxypyrazin-2-yl)-2-fluorobenzamide] | < 100
CCC(NC(=O)c1ccc(-c2cncc(F)c2)cc1)c1csc(NS(=O)(=O)C2CC2)n1 (single isomer, unassigned) [Example R68, N-(1-(2-(cyclopropanesulfonamido)thiazol-4-yl)propyl)-4-(5-fluoropyridin-3-yl)benzamide] | 1000 to 10000
CCOc1cncc(-c2ccc(C(=O)NC(C)(C)c3csc(NS(=O)(=O)C4CC4)n3)c(C)c2)n1 [Example R46, N-(2-(2-(cyclopropanesuIfonamido)thiazol-4-yl)propan-2-yl)-4-(6-ethoxypyrazin-2-yl)-2-methylbenzamide] | 100 to 1000
CCC(NC(=O)c1ccc(-c2cncc(C(F)(F)F)n2)cc1)c1csc(NS(=O)(=O)C2CC2)n1 (stereo not drawn) [Example R5, N-(1-(2-(cyclopropanesulfonamido)thiazol-4-yl)propyl)-4-(6-(trifluoromethyl)pyrazin-2-yl)benzamide] | < 100
O=C(NCc1csc(NS(=O)(=O)C2CC2)n1)c1ccc(-c2cccnc2)cc1 [Example R1, N-((2-(cyclopropanesulfonamido)thiazol-4-yl)methyl)-4-(pyridin-3-yl)benzamide] | 100 to 1000
CCOc1cncc(-c2ccc(C(=O)NC(C)(C)c3nc(NS(=O)(=O)C4CC4)sc3Cl)c(F)c2)n1 [Example R75, N-(2-(5-chloro-2-(cyclopropanesulfonamido)thiazol-4-yl)propan-2-yl)-4-(6-ethoxypyrazin-2-yl)-2-fluorobenzamide] | 100 to 1000
COc1cncc(-c2ccc(C(=O)NC(C)(C)c3csc(NS(=O)(=O)C4CC4)n3)cc2)c1 [Example R38, N-(2-(2-(cyclopropanesuIfonamido)thiazol-4-yl)propan-2-yl)-4-(5-methoxypyridin-3-yl)benzamide] | 100 to 1000
CCOc1cncc(-c2ccc(C(=O)NC(C)(C)c3nc(NS(=O)(=O)C4CC4)sc3Cl)nc2)n1 [Example R73, N-(2-(5-chloro-2-(cyclopropanesulfonamido)thiazol-4-yl)propan-2-yl)-5-(6-ethoxypyrazin-2-yl)picolinamide] | 1000 to 10000
CCC(NC(=O)c1ccc(-c2cncc(C)n2)cc1)c1csc(NS(=O)(=O)C2CC2)n1 (racemic) [Example R66, N-(1-(2-(cyclopropanesulfonamido)thiazol-4-yl)propyl)-4-(6-methylpyrazin-2-yl)benzamide] | 100 to 1000
CCOc1cncc(-c2ccc(C(=O)N(C)C(CC)c3csc(NS(=O)(=O)C4CC4)n3)c(F)c2)n1 (racemic) [Example R63, N-(1-(2-(cyclopropanesulfonamido)thiazol-4-yl)propyl)-4-(6-ethoxypyrazin-2-yl)-2-fluoro-N-methylbenzamide] | 100 to 1000
CCC(CC)(NC(=O)c1ccc(-c2cncc(C)n2)cc1)c1csc(NS(=O)(=O)C2CC2)n1 [Example R21, N-(3-(2-(cyclopropanesulfonamido)thiazol-4-yl)pentan-3-yl)-4-(6-methylpyrazin-2-yl)benzamide] | < 100
CC(C)(NC(=O)c1ccc(-c2cncc(C(F)(F)F)n2)cc1F)c1csc(NS(=O)(=O)C2CC2)n1 [Example R42, N-(2-(2-(cyclopropanesuIfonamido)thiazol-4-yl)propan-2-yl)-2-fluoro-4-(6-(trifluoromethyl)pyrazin-2-yl)benzamide] | < 100
COc1cc(-c2cncc(C(F)(F)F)c2)ccc1C(=O)NC(C)(C)c1csc(NS(=O)(=O)C2CC2)n1 [Example R32] | 100 to 1000
CC(C)(NC(=O)c1ccc(-c2cncc(Cl)c2)cc1)c1csc(NS(=O)(=O)C2CC2)n1 [Example R28] | < 100
